According to patent publication US20140221964A1, “SYSTEMS AND METHODS FOR LOCAL DRUG DELIVERY TO KIDNEYS” (priority 2011, published 2014):

Tested on: Spontaneously hypertensive rats
Experiment: Blood pressure and heart rate by tail-cuff after chronic local drug delivery to the renal capsule via implanted minipumps
[1] = local delivery to renal capsule by minipump, tail-cuff, over time

Clc1cccc(Cl)c1N=C1NCCN1 [clonidine]
dosage resulting in the blood-pressure effect, compared with oral dosage expected for a similar result (local delivery to renal capsule): significantly less than an oral dosage | heart rate (side effect) (local delivery to renal capsule by minipump): not reduced | diastolic blood pressure [1]: reduced | mean blood pressure [1]: reduced | systolic blood pressure [1]: reduced
